According to patent US20040063662A1, “Selenophene anti-tumor agents” (priority 1996, published 2004):

Columns and labels:
HOP-92 = experiment: NCI human tumor cell panel: HOP-92 (Non-Small Cell Lung Cancer); settings: for GI50: HOP-92, read-out: Log10 GI50 (converted); for IC (TGI): HOP-92, read-out: Log10 TGI
DU-145 = experiment: NCI human tumor cell panel: DU-145 (Prostate Cancer); type: cell-based; settings: DU-145, Prostate Cancer; for GI50: read-out: Log10 GI50 (converted); for IC (TGI): read-out: Log10 TGI (converted)
BT-549 = experiment: NCI human tumor cell panel: BT-549 (Breast Cancer); type: cell-based; settings: BT-549, Breast Cancer; for GI50: read-out: Log10 GI50 (converted); for IC (TGI): read-out: Log10 TGI (converted)
NCI-H460 = experiment: NCI human tumor cell panel: NCI-H460 (Non-Small Cell Lung Cancer); type: cell-based; settings: NCI-H460, Non-Small Cell Lung Cancer; for GI50: read-out: Log10 GI50 (converted); for IC (TGI): read-out: Log10 TGI (converted)
ACHN = experiment: NCI human tumor cell panel: ACHN (Renal Cancer); type: cell-based; settings: Renal Cancer; for GI50: read-out: Log10 GI50 (converted); for IC (TGI): read-out: Log10 TGI (converted)
K-562 = experiment: NCI human tumor cell panel: K-562 (Leukemia); type: cell-based; settings: K562, K-562, Leukemia; for GI50: read-out: Log10 GI50 (converted); for IC (TGI): read-out: Log10 TGI (converted)
HCC-2998 = experiment: NCI human tumor cell panel: HCC-2998 (Colon Cancer); type: cell-based; settings: HCC-2998, Colon Cancer; for IC (TGI): read-out: Log10 TGI (converted)
OVCAR-8 = experiment: NCI human tumor cell panel: OVCAR-8 (Ovarian Cancer); type: cell-based; settings: OVCAR-8, Ovarian Cancer; for GI50: read-out: Log10 GI50 (converted); for IC (TGI): read-out: Log10 TGI (converted)
786-0 = experiment: NCI human tumor cell panel: 786-0 (Renal Cancer); type: cell-based; settings: 786-0, Renal Cancer; for GI50: read-out: Log10 GI50 (converted); for IC (TGI): read-out: Log10 TGI (converted)
MCF7/ADR-RES = experiment: NCI human tumor cell panel: MCF7/ADR-RES (Breast Cancer); type: cell-based; settings: Breast Cancer; for GI50: read-out: Log10 GI50 (converted); for IC (TGI): read-out: Log10 TGI (converted)
PC-3 = experiment: NCI human tumor cell panel: PC-3 (Prostate Cancer); type: cell-based; settings: PC-3, Prostate Cancer; for GI50: read-out: Log10 GI50 (converted); for IC (TGI): read-out: Log10 TGI (converted)
HS 578T = experiment: NCI human tumor cell panel: HS 578T (Breast Cancer); type: cell-based; settings: Breast Cancer; for GI50: read-out: Log10 GI50 (converted); for IC (TGI): read-out: Log10 TGI (converted)
RPMI-8226 = experiment: NCI human tumor cell panel: RPMI-8226 (Leukemia); type: cell-based; settings: RPMI-8226, Leukemia; for GI50: read-out: Log10 GI50 (converted); for IC (TGI): read-out: Log10 TGI
SNB-75 = experiment: NCI human tumor cell panel: SNB-75 (CNS Cancer); type: cell-based; settings: SNB-75, CNS Cancer; for GI50: read-out: Log10 GI50 (converted); for IC (TGI): read-out: Log10 TGI (converted)
MCF7 = experiment: NCI human tumor cell panel: MCF7 (Breast Cancer); type: cell-based; settings: MCF7, Breast Cancer; for GI50: read-out: Log10 GI50 (converted); for IC (TGI): read-out: Log10 TGI (converted)
M14 = experiment: NCI human tumor cell panel: M14 (Melanoma); type: cell-based; settings: M14, Melanoma; for GI50: read-out: Log10 GI50 (converted); for IC (TGI): read-out: Log10 TGI (converted)
SK-MEL-5 = experiment: NCI human tumor cell panel: SK-MEL-5 (Melanoma); type: cell-based; settings: SK-MEL-5, Melanoma; for GI50: read-out: Log10 GI50 (converted); for IC (TGI): read-out: Log10 TGI (converted)
LOX IMVI = experiment: NCI human tumor cell panel: LOX IMVI (Melanoma); type: cell-based; settings: Melanoma; for GI50: read-out: Log10 GI50 (converted); for IC (TGI): read-out: Log10 TGI (converted)
U251 = experiment: NCI human tumor cell panel: U251 (CNS Cancer); type: cell-based; settings: U-251, U251, CNS Cancer; for GI50: read-out: Log10 GI50 (converted); for IC (TGI): read-out: Log10 TGI (converted)
SF-295 = experiment: NCI human tumor cell panel: SF-295 (CNS Cancer); type: cell-based; settings: SF-295, CNS Cancer; for GI50: read-out: Log10 GI50 (converted); for IC (TGI): read-out: Log10 TGI (converted)
A549/ATCC = experiment: NCI human tumor cell panel: A549/ATCC (Non-Small Cell Lung Cancer); type: cell-based; settings: Non-Small Cell Lung Cancer; for GI50: read-out: Log10 GI50 (converted); for IC (TGI): read-out: Log10 TGI (converted)
UO-31 = experiment: NCI human tumor cell panel: UO-31 (Renal Cancer); type: cell-based; settings: UO-31, Renal Cancer; for GI50: read-out: Log10 GI50 (converted); for IC (TGI): read-out: Log10 TGI (converted)
IGROV1 = experiment: NCI human tumor cell panel: IGROV1 (Ovarian Cancer); type: cell-based; settings: IGROV-1, IGROV1, Ovarian Cancer; for GI50: read-out: Log10 GI50 (converted); for IC (TGI): read-out: Log10 TGI (converted)
UACC-257 = experiment: NCI human tumor cell panel: UACC-257 (Melanoma); type: cell-based; settings: UACC-257, Melanoma; for GI50: read-out: Log10 GI50 (converted); for IC (TGI): read-out: Log10 TGI (converted)
CCRF-CEM = experiment: NCI human tumor cell panel: CCRF-CEM (Leukemia); type: cell-based; settings: Leukemia; for GI50: read-out: Log10 GI50 (converted); for IC (TGI): read-out: Log10 TGI (converted)
MDA-MB-435 = experiment: NCI human tumor cell panel: MDA-MB-435 (Breast Cancer); type: cell-based; settings: MDA-MB-435, Breast Cancer; for GI50: read-out: Log10 GI50 (converted); for IC (TGI): read-out: Log10 TGI (converted)
SNB-19 = experiment: NCI human tumor cell panel: SNB-19 (CNS Cancer); type: cell-based; settings: SNB-19, CNS Cancer; for GI50: read-out: Log10 GI50 (converted); for IC (TGI): read-out: Log10 TGI (converted)
MDA-N = experiment: NCI human tumor cell panel: MDA-N (Breast Cancer); type: cell-based; settings: Breast Cancer; for GI50: read-out: Log10 GI50 (converted); for IC (TGI): read-out: Log10 TGI (converted)
TK-10 = experiment: NCI human tumor cell panel: TK-10 (Renal Cancer); type: cell-based; settings: TK-10, Renal Cancer; for GI50: read-out: Log10 GI50 (converted); for IC (TGI): read-out: Log10 TGI (converted)
OVCAR-3 = experiment: NCI human tumor cell panel: OVCAR-3 (Ovarian Cancer); type: cell-based; settings: OVCAR-3, Ovarian Cancer; for GI50: read-out: Log10 GI50 (converted); for IC (TGI): read-out: Log10 TGI (converted)
MOLT-4 = experiment: NCI human tumor cell panel: MOLT-4 (Leukemia); type: cell-based; settings: MOLT-4, Leukemia; for GI50: read-out: Log10 GI50 (converted); for IC (TGI): read-out: Log10 TGI (converted)
HCT-116 = experiment: NCI human tumor cell panel: HCT-116 (Colon Cancer); type: cell-based; settings: HCT-116, Colon Cancer; for GI50: read-out: Log10 GI50 (converted); for IC (TGI): read-out: Log10 TGI (converted)

## O=Cc1ccc(-c2ccc(-c3ccc(C=O)[se]3)s2)[se]1 [NSC 676630]
HOP-92
  GI50: > 100 µM
  IC (TGI): > 100 µM
DU-145
  GI50: > 100 µM
  IC (TGI): > 100 µM
BT-549
  GI50: 63.1 µM
  IC (TGI): > 100 µM
NCI-H460
  GI50: 0.129 µM
  IC (TGI): > 100 µM
ACHN
  GI50: > 100 µM
  IC (TGI): > 100 µM
K-562
  GI50: 3.39 µM
  IC (TGI): > 100 µM
HCC-2998
  IC (TGI): 85.1 µM
OVCAR-8
  GI50: 33.1 µM
  IC (TGI): > 100 µM
786-0
  GI50: > 100 µM
  IC (TGI): > 100 µM
MCF7/ADR-RES
  GI50: 79.4 µM
  IC (TGI): > 100 µM
PC-3
  GI50: > 100 µM
  IC (TGI): > 100 µM
HS 578T
  GI50: > 100 µM
  IC (TGI): > 100 µM
RPMI-8226
  GI50: > 100 µM
  IC (TGI): > 100 µM
SNB-75
  GI50: 67.6 µM
  IC (TGI): > 100 µM
MCF7
  GI50: 0.676 µM
  IC (TGI): > 100 µM
M14
  GI50: > 100 µM
  IC (TGI): > 100 µM
SK-MEL-5
  GI50: > 100 µM
  IC (TGI): > 100 µM
LOX IMVI
  GI50: > 100 µM
  IC (TGI): > 100 µM
U251
  GI50: 0.589 µM
  IC (TGI): > 100 µM
SF-295
  GI50: > 100 µM
  IC (TGI): > 100 µM
A549/ATCC
  GI50: 87.1 µM
  IC (TGI): > 100 µM
UO-31
  GI50: > 100 µM
  IC (TGI): > 100 µM
IGROV1
  GI50: 1.48 µM
  IC (TGI): > 100 µM
UACC-257
  GI50: 0.275 µM
  IC (TGI): 0.676 µM
CCRF-CEM
  GI50: > 100 µM
  IC (TGI): > 100 µM
MDA-MB-435
  GI50: > 100 µM
  IC (TGI): > 100 µM
SNB-19
  GI50: > 100 µM
  IC (TGI): > 100 µM
MDA-N
  GI50: > 100 µM
  IC (TGI): > 100 µM
TK-10
  GI50: 0.38 µM
  IC (TGI): 1.62 µM
OVCAR-3
  GI50: 0.724 µM
  IC (TGI): > 100 µM
MOLT-4
  GI50: > 100 µM
  IC (TGI): > 100 µM
HCT-116
  GI50: 3.02 µM
  IC (TGI): > 100 µM

## O=Cc1ccc(-c2ccc(-c3ccc(C=O)[se]3)[se]2)[se]1 [NSC 675245]
HOP-92
  GI50: > 100 µM
  IC (TGI): > 100 µM
DU-145
  GI50: > 100 µM
  IC (TGI): > 100 µM
BT-549
  GI50: > 100 µM
  IC (TGI): > 100 µM
NCI-H460
  GI50: 1.78 µM
  IC (TGI): > 100 µM
ACHN
  GI50: 57.5 µM
  IC (TGI): > 100 µM
K-562
  GI50: 6.76 µM
  IC (TGI): > 100 µM
HCC-2998; read-out: Log10 GI50 (converted)
  GI50: 4.79 µM
HCC-2998
  IC (TGI): > 100 µM
OVCAR-8
  GI50: > 100 µM
  IC (TGI): > 100 µM
786-0
  GI50: 67.6 µM
  IC (TGI): > 100 µM
MCF7/ADR-RES
  GI50: > 100 µM
  IC (TGI): > 100 µM
PC-3
  GI50: > 100 µM
  IC (TGI): > 100 µM
HS 578T
  GI50: 87.1 µM
  IC (TGI): > 100 µM
RPMI-8226
  GI50: > 100 µM
  IC (TGI): > 100 µM
SNB-75
  GI50: 10 µM
  IC (TGI): > 100 µM
MCF7
  GI50: 1.48 µM
  IC (TGI): > 100 µM
M14
  GI50: > 100 µM
  IC (TGI): > 100 µM
SK-MEL-5
  GI50: 72.4 µM
  IC (TGI): > 100 µM
LOX IMVI
  GI50: > 100 µM
  IC (TGI): > 100 µM
U251
  GI50: 1.05 µM
  IC (TGI): > 100 µM
SF-295
  GI50: 49 µM
  IC (TGI): > 100 µM
A549/ATCC
  GI50: > 100 µM
  IC (TGI): > 100 µM
UO-31
  GI50: > 100 µM
  IC (TGI): > 100 µM
IGROV1
  GI50: 67.6 µM
  IC (TGI): 25.7 µM
UACC-257
  GI50: 0.324 µM
  IC (TGI): 0.912 µM
CCRF-CEM
  GI50: > 100 µM
  IC (TGI): > 100 µM
MDA-MB-435
  GI50: > 100 µM
  IC (TGI): > 100 µM
SNB-19
  GI50: 29.5 µM
  IC (TGI): > 100 µM
MDA-N
  GI50: > 100 µM
  IC (TGI): > 100 µM
TK-10
  GI50: 0.257 µM
  IC (TGI): 0.813 µM
OVCAR-3
  GI50: 0.389 µM
  IC (TGI): > 100 µM
MOLT-4
  GI50: > 100 µM
  IC (TGI): > 100 µM
HCT-116
  GI50: 0.692 µM
  IC (TGI): > 100 µM
